Laboratory results published in PubChem BioAssay (NCI).
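Growth conditions: 96-well plates. Treatment: test compound, 48 hours, 5 concentrations. Analysis: linear interpolation between bracketing concentrations; unreached endpoints set to highest concentration. Abbreviation: GI50, concentration required for 50% inhibition of growth. Definition used: TGI = concentration required for complete inhibition of growth.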

What was measured:
Assay in all cases: DTP human tumour cell line panel, 48 h
SNB-75 CNS = test system: SNB-75 CNS
A498 renal = test system: A498 renal
SW-620 colon = test system: SW-620 colon
NCI-H460 lung = test system: NCI-H460 lung
UO-31 renal = test system: UO-31 renal
COLO 205 colon = test system: COLO 205 colon
ACHN renal = test system: ACHN renal
SK-MEL-28 melanoma = test system: SK-MEL-28 melanoma
EKVX NSCLC = test system: EKVX NSCLC
HOP-62 NSCLC = test system: HOP-62 NSCLC

| SMILES | TGI (SNB-75 CNS) | TGI (A498 renal) | TGI (SW-620 colon) | TGI (NCI-H460 lung) | TGI (UO-31 renal) | TGI (COLO 205 colon) | TGI (ACHN renal) | TGI (SK-MEL-28 melanoma) | TGI (EKVX NSCLC) | TGI (HOP-62 NSCLC) | GI50 (SNB-75 CNS) | GI50 (A498 renal) | GI50 (SW-620 colon) | GI50 (NCI-H460 lung) | GI50 (HOP-62 NSCLC) | GI50 (UO-31 renal) | GI50 (COLO 205 colon) | GI50 (ACHN renal) | GI50 (SK-MEL-28 melanoma) | GI50 (EKVX NSCLC) |
| --- | --- | --- | --- | --- | --- | --- | --- | --- | --- | --- | --- | --- | --- | --- | --- | --- | --- | --- | --- | --- |
| CCOC(=O)/C(O)=C/c1cc(OC)cc(=O)o1 | > 100 µM | > 100 µM | > 100 µM | > 100 µM | > 100 µM | > 100 µM | > 100 µM | > 100 µM | > 100 µM | – | – | – | – | – | – | – | – | – | – | – |
| OCCCOC(c1ccccc1)(c1ccccc1)c1ccccc1 | 62 µM | – | > 100 µM | > 100 µM | > 100 µM | > 100 µM | > 100 µM | > 100 µM | – | > 100 µM | – | – | – | – | – | – | – | – | – | – |
| CCOC(=O)C1(Br)C(c2ccccc2)NC(=O)NC1(C)Br (stereo not drawn) | > 100 µM | > 100 µM | – | > 100 µM | > 100 µM | > 100 µM | > 100 µM | > 100 µM | > 100 µM | > 100 µM | – | – | – | – | – | – | – | – | – | – |
| CCCCCCCNc1nc(C(=O)OCC)ncc1-c1ccc(C(F)(F)F)cc1 | > 100 µM | > 100 µM | > 100 µM | 32.7 µM | 77.1 µM | 88.1 µM | > 100 µM | > 100 µM | – | > 100 µM | 41.7 µM | 16 µM | 41.5 µM | 14.7 µM | 55.7 µM | 16.4 µM | 26.8 µM | 32 µM | 66.2 µM | – |
| O=C(c1ccc2ccccc2c1)c1c(C(F)(F)F)n([O-])c2cc(F)c(F)cc2[n+]1=O | 15 µM | 32.1 µM | – | 88.9 µM | 2.68 µM | – | 4.16 µM | 12.7 µM | 6.43 µM | 16.8 µM | 4.29 µM | 16 µM | – | 3.74 µM | 5.02 µM | 1.02 µM | – | 2.03 µM | 4.22 µM | 2.46 µM |
| O=C1C(c2c[nH]c3ccccc23)=C(c2c[nH]c3ccccc23)C(=O)N1O | > 25 µM | > 25 µM | > 25 µM | > 25 µM | > 25 µM | > 25 µM | > 25 µM | > 25 µM | – | > 25 µM | > 25 µM | 8.1 µM | > 25 µM | > 25 µM | > 25 µM | 5.78 µM | > 25 µM | > 25 µM | > 25 µM | – |
